Key:
Assay in all cases: relative viability (nuclei count vs DMSO), 5 days (fraction); higher = more cells survive
201T = tested on: 201T
In short: (§1)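 A single step with final 0.05% Triton X-100, 1% formaldehyde and 1 ug/ml Hoechst fixed the cells and stained nuclei 5 days after treatment. Lung cancer cell lines in 1536-well plates had been treated by pin tool the day after seeding with one drug alone or a fixed anchor-drug dose plus five library-drug doses (not always all listed) in √10 steps, and nuclei were counted on 4× images. Relative viability is the ratio of nuclei in treated wells to nuclei in vehicle wells, taken as the median of duplicate plates.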

BEN = tested on: BEN
In short: as §1

EPLC-272H = tested on: EPLC-272H
In short: as §1

HCC-15 = tested on: HCC-15
In short: as §1

HCC-78 = tested on: HCC-78
In short: as §1

LCLC-97TM1 = tested on: LCLC-97TM1
In short: as §1

LU99A = tested on: LU99A
In short: as §1

NCI-H1355 = tested on: NCI-H1355
In short: as §1

NCI-H1395 = tested on: NCI-H1395
In short: as §1

NCI-H2009 = tested on: NCI-H2009
In short: as §1

NCI-H2085 = tested on: NCI-H2085
In short: as §1

NCI-H2126 = tested on: NCI-H2126
In short: as §1

NCI-H2228 = tested on: NCI-H2228
In short: as §1

NCI-H2342 = tested on: NCI-H2342
In short: as §1

NCI-H23 = tested on: NCI-H23
In short: as §1

NCI-H2405 = tested on: NCI-H2405
In short: as §1

NCI-H322M = tested on: NCI-H322M
In short: as §1

NCI-H460 = tested on: NCI-H460
In short: as §1

NCI-H647 = tested on: NCI-H647
In short: as §1

NCI-H650 = tested on: NCI-H650
In short: as §1

NCI-H661 = tested on: NCI-H661
In short: as §1

NCI-H838 = tested on: NCI-H838
In short: as §1

PC-14 = tested on: PC-14
In short: as §1

`Cc1cn(-c2cc(NC(=O)c3ccc(C)c(Nc4nccc(-c5cccnc5)n4)c3)cc(C(F)(F)F)c2)cn1` [Nilotinib] + O=C(CCCCCCC(=O)Nc1ccccc1)NO [Vorinostat] (partner 1 µM) gave a relative viability (201T; first compound 0.001 µM) of 0.931, a relative viability (201T; first compound 0.003162 µM) of 1.19 and a relative viability (201T; first compound 0.01 µM) of 1.22. For the same compound, the relative viability (201T; first compound 0.1 µM) was 0.28, the relative viability (BEN; first compound 0.001 µM) was 0.532 and the relative viability (BEN; first compound 0.003162 µM) was 0.556. The relative viability (BEN; first compound 0.01 µM) was 0.723, the relative viability (BEN; first compound 0.03162 µM) was 0.642 and the relative viability (BEN; first compound 0.1 µM) was 0.574. For the same compound, the relative viability (EPLC-272H; first compound 0.001 µM) was 0.376, the relative viability (EPLC-272H; first compound 0.003162 µM) was 0.331 and the relative viability (EPLC-272H; first compound 0.01 µM) was 0.37. For the same compound, the relative viability (EPLC-272H; first compound 0.03162 µM) was 0.407, the relative viability (EPLC-272H; first compound 0.1 µM) was 0.579 and the relative viability (HCC-15; first compound 0.001 µM) was 0.791. For the same compound, the relative viability (HCC-15; first compound 0.003162 µM) was 0.913, the relative viability (HCC-15; first compound 0.01 µM) was 0.936 and the relative viability (HCC-15; first compound 0.03162 µM) was 0.616. The relative viability (HCC-15; first compound 0.1 µM) was 0.761, the relative viability (HCC-78; first compound 0.001 µM) was 0.483 and the relative viability (HCC-78; first compound 0.003162 µM) was 0.512. It also gave a relative viability (HCC-78; first compound 0.01 µM) of 0.553, a relative viability (HCC-78; first compound 0.03162 µM) of 0.4 and a relative viability (HCC-78; first compound 0.1 µM) of 0.565. The relative viability (LCLC-97TM1; first compound 0.001 µM) was 0.605, the relative viability (LCLC-97TM1; first compound 0.003162 µM) was 0.891 and the relative viability (LCLC-97TM1; first compound 0.01 µM) was 0.964. It also gave a relative viability (LCLC-97TM1; first compound 0.03162 µM) of 0.515, a relative viability (LCLC-97TM1; first compound 0.1 µM) of 0.102 and a relative viability (LU99A; first compound 0.001 µM) of 0.429. The relative viability (LU99A; first compound 0.003162 µM) was 0.506, the relative viability (LU99A; first compound 0.01 µM) was 0.468 and the relative viability (LU99A; first compound 0.03162 µM) was 0.411. The relative viability (LU99A; first compound 0.1 µM) was 0.353, the relative viability (NCI-H1355; first compound 0.001 µM) was 0.6 and the relative viability (NCI-H1355; first compound 0.003162 µM) was 0.695. It also gave a relative viability (NCI-H1355; first compound 0.01 µM) of 0.67, a relative viability (NCI-H1355; first compound 0.03162 µM) of 0.59 and a relative viability (NCI-H1355; first compound 0.1 µM) of 0.335. It also gave a relative viability (NCI-H1395; first compound 0.001 µM) of 0.728, a relative viability (NCI-H1395; first compound 0.01 µM) of 0.616 and a relative viability (NCI-H1395; first compound 0.03162 µM) of 0.59. For the same compound, the relative viability (NCI-H1395; first compound 0.1 µM) was 0.473, the relative viability (NCI-H2009; first compound 0.001 µM) was 0.607 and the relative viability (NCI-H2009; first compound 0.003162 µM) was 0.755. It also gave a relative viability (NCI-H2009; first compound 0.01 µM) of 0.743, a relative viability (NCI-H2009; first compound 0.03162 µM) of 0.579 and a relative viability (NCI-H2009; first compound 0.1 µM) of 0.46. For the same compound, the relative viability (NCI-H2085; first compound 0.001 µM) was 0.833, the relative viability (NCI-H2085; first compound 0.003162 µM) was 0.776 and the relative viability (NCI-H2085; first compound 0.01 µM) was 0.784. It also gave a relative viability (NCI-H2085; first compound 0.03162 µM) of 0.753, a relative viability (NCI-H2085; first compound 0.1 µM) of 0.598 and a relative viability (NCI-H2126; first compound 0.001 µM) of 0.754. It also gave a relative viability (NCI-H2126; first compound 0.003162 µM) of 0.888, a relative viability (NCI-H2126; first compound 0.01 µM) of 0.864 and a relative viability (NCI-H2126; first compound 0.03162 µM) of 0.764. The relative viability (NCI-H2126; first compound 0.1 µM) was 0.476, the relative viability (NCI-H2228; first compound 0.001 µM) was 0.659 and the relative viability (NCI-H2228; first compound 0.003162 µM) was 0.616. For the same compound, the relative viability (NCI-H2228; first compound 0.01 µM) was 0.594, the relative viability (NCI-H2228; first compound 0.03162 µM) was 0.501 and the relative viability (NCI-H2228; first compound 0.1 µM) was 0.588. For the same compound, the relative viability (NCI-H2342; first compound 0.001 µM) was 0.675, the relative viability (NCI-H2342; first compound 0.003162 µM) was 0.685 and the relative viability (NCI-H2342; first compound 0.01 µM) was 0.668. The relative viability (NCI-H2342; first compound 0.03162 µM) was 0.681, the relative viability (NCI-H2342; first compound 0.1 µM) was 0.655 and the relative viability (NCI-H23; first compound 0.001 µM) was 0.48. It also gave a relative viability (NCI-H23; first compound 0.003162 µM) of 0.438, a relative viability (NCI-H23; first compound 0.01 µM) of 0.685 and a relative viability (NCI-H23; first compound 0.03162 µM) of 0.239. For the same compound, the relative viability (NCI-H23; first compound 0.1 µM) was 0.546, the relative viability (NCI-H2405; first compound 0.001 µM) was 0.946 and the relative viability (NCI-H2405; first compound 0.003162 µM) was 0.927. The relative viability (NCI-H2405; first compound 0.03162 µM) was 0.763, the relative viability (NCI-H2405; first compound 0.1 µM) was 0.521 and the relative viability (NCI-H322M; first compound 0.001 µM) was 0.896. For the same compound, the relative viability (NCI-H322M; first compound 0.003162 µM) was 0.68, the relative viability (NCI-H322M; first compound 0.01 µM) was 0.962 and the relative viability (NCI-H322M; first compound 0.03162 µM) was 0.848. The relative viability (NCI-H322M; first compound 0.1 µM) was 0.913, the relative viability (NCI-H460; first compound 0.001 µM) was 0.428 and the relative viability (NCI-H460; first compound 0.003162 µM) was 0.996. The relative viability (NCI-H460; first compound 0.01 µM) was 1.34, the relative viability (NCI-H460; first compound 0.03162 µM) was 0.33 and the relative viability (NCI-H460; first compound 0.1 µM) was 0.535. The relative viability (NCI-H647; first compound 0.001 µM) was 0.433, the relative viability (NCI-H647; first compound 0.003162 µM) was 0.671 and the relative viability (NCI-H647; first compound 0.01 µM) was 0.418. For the same compound, the relative viability (NCI-H647; first compound 0.03162 µM) was 0.314, the relative viability (NCI-H647; first compound 0.1 µM) was 0.245 and the relative viability (NCI-H650; first compound 0.001 µM) was 0.392. For the same compound, the relative viability (NCI-H650; first compound 0.003162 µM) was 0.437, the relative viability (NCI-H650; first compound 0.01 µM) was 0.445 and the relative viability (NCI-H650; first compound 0.03162 µM) was 0.407. The relative viability (NCI-H650; first compound 0.1 µM) was 0.377, the relative viability (NCI-H661; first compound 0.001 µM) was 0.792 and the relative viability (NCI-H661; first compound 0.003162 µM) was 0.889. For the same compound, the relative viability (NCI-H661; first compound 0.01 µM) was 0.875, the relative viability (NCI-H661; first compound 0.03162 µM) was 0.642 and the relative viability (NCI-H661; first compound 0.1 µM) was 0.615. For the same compound, the relative viability (NCI-H838; first compound 0.001 µM) was 0.693, the relative viability (NCI-H838; first compound 0.003162 µM) was 0.783 and the relative viability (NCI-H838; first compound 0.01 µM) was 0.753. The relative viability (NCI-H838; first compound 0.03162 µM) was 0.726, the relative viability (NCI-H838; first compound 0.1 µM) was 0.688 and the relative viability (PC-14; first compound 0.001 µM) was 0.594. For the same compound, the relative viability (PC-14; first compound 0.003162 µM) was 0.378, the relative viability (PC-14; first compound 0.01 µM) was 0.756 and the relative viability (PC-14; first compound 0.03162 µM) was 0.604. It also gave a relative viability (PC-14; first compound 0.1 µM) of 0.156.
